From paper PMC7830570, “Substrate Scope for Human Histone Lysine Acetyltransferase KAT8” (International Journal of Molecular Sciences, 2021)

Assays:
[1] = target: T1, human KAT8 (residues 125–458) (Homo sapiens, UniProt Q9H7Z6); test: MALDI-TOF MS enzymatic assay of KAT8-catalysed acetylation of H4K*16 histone peptides; assay type: biochemical; details: standard conditions: 2 µM KAT8, 100 µM histone peptide, 300 µM AcCoA, 50 mM HEPES, 0.1 mM EDTA, 1 mM DTT, pH 8.0, 37 °C
T1 construct: Recombinant human KAT8 (residues 125–458) was expressed in E. coli; His tag; made in house; host or cells: E. coli
T1 sequence (Q9H7Z6 125-458): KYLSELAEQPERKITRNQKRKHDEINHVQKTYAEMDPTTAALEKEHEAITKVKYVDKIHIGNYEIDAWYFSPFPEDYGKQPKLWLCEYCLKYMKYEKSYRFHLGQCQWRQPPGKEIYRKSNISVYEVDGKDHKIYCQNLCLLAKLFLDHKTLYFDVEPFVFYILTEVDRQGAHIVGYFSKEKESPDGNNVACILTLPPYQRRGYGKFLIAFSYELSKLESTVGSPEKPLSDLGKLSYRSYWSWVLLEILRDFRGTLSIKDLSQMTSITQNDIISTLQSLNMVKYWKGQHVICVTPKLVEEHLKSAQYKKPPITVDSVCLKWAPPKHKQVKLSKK
Method: The biocatalytic potential of KAT8 was assessed through a MALDI-TOF MS based enzymatic assay. Human KAT8 was incubated in the presence of H4K*16 peptides and AcCoA under “standard conditions” (2 µM KAT8, 100 µM histone peptide, 300 µM AcCoA; assay buffer: 50 mM Hepes, 0.1 mM EDTA, 1 mM DTT, pH = 8.0) and the production of acetylated peptides was monitored at different time points. […] KAT8-catalysed acetylation of H4K16 was quantitative after 1 h, in line with previous findings (Figure 3a and Figure S17). […] This is an interesting observation, given the well-documented capacity of some histone lysine methyltransferases (KMTs) that introduce higher methylation states (i.e., Kme2 and Kme3) on histone tails starting from Kme as a substrate. […]
KAT8 enzymatic activity towards H4K*16 histone peptides was measured at different time points under standard conditions (2 µM KAT8, 100 µM peptide, 300 µM AcCoA) in reaction buffer (50 mM HEPES, 0.1 mM EDTA, 1 mM DTT, pH = 8.0) as previously described The reactions were performed in a final volume of 50 µL and shaken at 37 °C, using a Thermomixer C (750 rpm). KAT8 activity was stopped at a given time point by the addition of TFA 10% in Milli-Q water, and reactions were analysed by MALDI-TOF MS employing α-Cyano-4-hydroxycinnamic acid (CHCA) matrix.

[2] = target: T1, human KAT8 (residues 125–458); test: MALDI-TOF MS kinetics assay of KAT8-catalysed acetylation under steady-state conditions; assay type: biochemical; details: pH 7.4, 37 °C
Method: Next, we investigated the catalytic efficiencies for the histone peptides that were observed as KAT8 substrates. Kinetics analyses were carried out under steady-state conditions by incubating saturating concentrations of AcCoA against different concentrations of histone peptides.
Histone peptides kinetics evaluation was carried out with a MALDI-TOF MS assay under steady-state conditions as previously described. Briefly, dilution series of H4K*16 peptides (1050 or 700–0 µM) were incubated with AcCoA (100 µM; > 5 x KM value of AcCoA) and the reactions were started by the addition of KAT8 (570 nM) in kinetic buffer (50 mM HEPES, 0.1 mM EDTA, 0.01% TRITON-X, pH = 7.4). AcCoA stock solutions in Milli-Q water were calibrated using a NanoDrop 2000 spectrophotometer (Thermo Scientific, Waltham, MA, USA), with molar extinction coefficient ε260nm = 16,400 M^−1 cm^−1. Reactions were incubated for 20 min at 37 °C, shaken at 750 rpm and quenched with TFA 10% in Milli-Q water at different time points within the linear production of acetylated peptides. Quantification of the acetylated peptide produced was extrapolated, at any concentration point, with FlexAnalysis software, considering all the ionic species. Kinetic parameters were obtained by fitting V0 values and histone peptide concentrations to the Michaelis–Menten equation using the GraphPad Prism 5 software. Kinetic experiments were carried out in replicates (n = 2 or 3) and final values are reported as the mean value ± SD.

[3] = target: T1, human KAT8 (residues 125–458); details: lysine analogue on histone peptide; cited from earlier work
Method: The biocatalytic potential of KAT8 was assessed through a MALDI-TOF MS based enzymatic assay. Human KAT8 was incubated in the presence of H4K*16 peptides and AcCoA under “standard conditions” (2 µM KAT8, 100 µM histone peptide, 300 µM AcCoA; assay buffer: 50 mM Hepes, 0.1 mM EDTA, 1 mM DTT, pH = 8.0) and the production of acetylated peptides was monitored at different time points. […] KAT8-catalysed acetylation of H4K16 was quantitative after 1 h, in line w ... || Subsequently, we investigated the role of the geometrically constrained and steric lysine analogues for KAT8 catalysis. The KAT8-catalysed reaction of H4KE16 produced 64% of acetylated peptide after 1 h, and reached completion within 3 h (Figure 3i and Figure S17).

| Substance | acetylated peptide produced after 1 h [1] | kcat^app ([2]; 570 nM KAT8, 100 µM AcCoA, peptide 1050 or 700–0 µM, 50 mM HEPES, 0.1 mM EDTA, 0.01% TRITON-X, mean ± SD, n = 2 or 3, SD) | Km ([2]; 570 nM KAT8, 100 µM AcCoA, peptide 1050 or 700–0 µM, 50 mM HEPES, 0.1 mM EDTA, 0.01% TRITON-X, mean ± SD, n = 2 or 3, SD, read-out: KM^app) | kcat^app/KM^app ([2]; catalytic efficiency from kcat^app and KM^app) | KAT8 substrate quality [3] |
| --- | --- | --- | --- | --- | --- |
| GGAK16RHRKVLRDNIQ [H4K16, histone H4 peptide, residues 13–27, with natural lysine at position 16] | quantitative | 0.25 ± 0.013 s⁻¹ | 437 ± 107 µM | 567 M⁻¹ s⁻¹ |  |
| γ-thialysine |  |  |  |  | excellent substrate |
| homolysine [hK] |  |  |  |  | good KAT8 substrate |
